# Assays:
# Bcl-xL = experiment: Drug response titration of Bad-BclxL iADAR system using A-1331852; type: cell-based, human; details: ADAR-Bad-BclxL variant with point mutation F121L, drug added at transfection
# AlfaNb = details: cited from earlier work
# UAG-MS2 editing reporter [1] = experiment: Stop codon editing reporter (mCherry / mNeonGreen) co-transfected with ADAR variants, flow cytometry (median mNeonGreen to mCherry); type: cell-based, human; details: for ADAR activity on mCherry-mNeonGreen reporter, no TEV protease: SpyTag / SpyCatcher ADAR variants
# From the text: For the reporter system, the inventors used the fluorescent protein-epitope tag tandem fusions of mCherry-FLAG and HA-mNeonGreen as the upstream and downstream coding regions. Without DD editing activity, translation is terminated after mCherry-FLAG. Coexpression with MCP-ADAR2-DD was hypothesized to lead to binding of MCP-DD, stop codon UAG editing to UIG, and expression of mNeonGreen (FIG. 1B).
# HEK 293 FT cells were co-transfected with plasmids expressing the reporter containing 2 UAG stop codons in the hairpin and a pcDNA3 construct encoding a fusion protein composed of MCP, ADAR2-DD (E488Q), and TagBFP.
# Two days later, fluorescence microscopy images were taken of the cell populations. […] The inventors repeated the experiment and analyzed the samples by flow-cytometry.
# The inventors transiently co-transfected HEK 293 FT cells with the mCherry-mNeonGreen reporter, MCP-ADAR2-DD variants containing different configurations of ALFA-tag insertions and NbALFA fusions, and uncaging constructs containing miRFP670 fused to ALFA. Without wishing to be bound by theory, it was hypothesized that the intramolecular interaction would inhibit the ADAR2-DD, but that the ALFA tag on the miRFP670 would displace the lower strength ALFA variants (PE and 78), and perhaps at high enough concentrations displace the intramolecular ALFA, and lead to increased editing.
# The inventors then made an ADAR-DD variant with an inserted TEV protease cut site (amino acids ENLYFQG, SEQ ID NO: 286) between the C-terminus of ADAR2-DD and the N-terminus of SpyCatcher (FIG. 5C). The inventors co-transfected HEK 293 FT cells with the reporter construct, the ADAR-DD TEVcs variant, and the TEV protease and 48 hours later analyzed the transfected cells via flow cytometry (FIG. 5D-5E).
# Mutated versions were then cloned and co-transfected with an editing reporter in the absence and presence of A-1331852, and absolute background and fold change upon drug addition were determined by flow cytometry (see e.g., FIG. 22d and table 11).
# UAG-MS2 editing reporter [2] = experiment: Stop codon editing reporter (mCherry / mNeonGreen) co-transfected with ADAR variants, fluorescence microscopy / ImageJ quantification; type: cell-based, human; details: for ADAR editing of the reporter construct depending on fusion position of BAD / Bcl-xL: 50 ng reporter and 50 ng ADAR construct, with or without A-1331852
# GFP-GPI reporter = experiment: AUA to AUI editing creating upstream in-frame signal sequence and HA tag, live imaging and HA staining; type: cell-based, human
# From the text: To test this, a reporter construct was designed that contained: an MS2-A editable AUA start codon upstream of the murine IgGκ signal sequence and HA epitope tag (SS-HA), an in frame AUG start codon, GFP, and the glycosylphosphatidylinositol (GPI) anchor sequence from Thymocyte differentiation antigen 1 (GPI in diagram) (see e.g., FIG. 27a). With this reporter, in the absence of editing, the majority of the translated product will be from the AUG codon directly upstream of GFP. This will lead to the translation product residing in the cytoplasm with a non-functional GPI anchor (as this post-translational modification (PTM) must occur in the endoplasmic reticulum (ER) lumen). Upon ADAR editing of the upstream AUA to AUI, translation will initiate upstream of the signal sequence, leading to co-translational translocation of HA-GFP-GPI into the ER lumen, the addition of the GPI anchor PTM, and presentation of HA-GFP on the plasma membrane (see e.g., FIG. 27b). With this construct, the editing can be monitored by either by microscopy (looking for ER & plasma membrane localization) or directly by immunostaining for the HA-tag.
# HEK cells were co-transfected with the GFP-GPI reporter and either filler DNA, MCP-dADAR, or MCP-ADAR. A GFP-GPI with a functional start codon before the secretion signal was also transfected as a positive control (GFP-GPI Control). One day after transfection, HEK cells were imaged live, and then fixed and stained for HA tag with a primary anti-HA antibody and a secondary antibody that was conjugated to ALEXAFLUOR 647 (AF647).
# editable AUG reporters = experiment: Destruction of an AUG start codon to IUG, EGFPd2/dTomato reporter, flow cytometry; type: cell-based, human; details: 48 hours post-transfection; n=3
# From the text: To test this, an ADAR substrate was designed similar to the substrates tested above, but with an AUG codon in a dsRNA hairpin with a mismatch to promote the deamination of the correct adenine (see e.g., FIG. 28b). This scheme was similarly tested with both the high affinity MS2-C and lower affinity MS2-A variants by cloning these substrates into a pcDNA3 vector with a bidirectional CMV driving the expression of dTomato and EGFPd2 (see e.g., FIG. 28c).
# HEK cells were co-transfected with the two different reporter constructs (MS2-C and MS2-A) and cither filler DNA, MCP-dADAR, or MCP-ADAR. 48 hours post-transfection, cells were lifted and analyzed by flow cytometry. Transfected cells were gated by dTomato, and the median EGFPd2-to-dTomato ratio for the population was calculated per replicate (n=3) by FLOWJO. 2-Way ANOVA was performed to determine significance.
# AUA reporter = experiment: Creation of a START codon (AUA to AUI), EGFPd2/dTomato reporter, flow cytometry; type: cell-based, human; details: 48 hours post-transfection, n=3
# From the text: To test this, an ADAR substrate was designed composed of a dsRNA hairpin containing both an AUA-codon with a mismatch at the second adenine to promote specific deamination to AUI (as opposed to IUA or IUI) and an MS2 operator motif (see e.g., FIG. 26b). The design of one large dsRNA hairpin was chosen to promote correct folding of RNA secondary structures. Previous studies have shown that MS2 operators in the 5′UTR of eukaryotic mRNA can lead to decreased translational efficiency when co-expressed with its corresponding coat protein (MS2 coat protein, or MCP), so high and low affinity variants of the MS2 operator (called here MS2-C and MS2-A respectively for the base at the stem loop) were tested with the idea that the lower affinity MS2-A loop would be less likely to inhibit translation by coat protein alone. As positive controls, the same loops were also designed with the correct AUG start codon.
# These designs were cloned into pcDNA3 vectors containing a bidirectional CMV promoter driving constitutive dTomato and EGFPd2 (see e.g., FIG. 26c). The S′UTR and start codon of EGFPd2 were replaced with the editable start codon designs so the translational efficiency could be measured by looking at the EGFPd2 fluorescence relative to dTomato when co-expressed with MCP-ADAR. In this construct, if the correct start codon is skipped, the next AUG codon leads to a short, out of frame translation product.
# HEK293FT cells were co-transfected with each of the reporter constructs (MS2-C w/ AUG start, MS2-C w/ AUA start, MS2-A w/ AUG start, and MS2-A w/ AUA start) and either filler DNA, inactivated ADAR2-DD (E396A) fused to MCP (MCP-dADAR), or active ADAR2-DD (E488Q) fused to MCP (MCP-ADAR). 48 hours post-transfection, cells were lifted and analyzed by flow cytometry. Transfected cells were gated by dTomato, and the median EGFPd2-to-dTomato ratio for the population was calculated per replicate (n=3) by FLOWJO. 2-Way ANOVA was performed to determine significance.
# Sequence of AlfaNb (as listed by the source): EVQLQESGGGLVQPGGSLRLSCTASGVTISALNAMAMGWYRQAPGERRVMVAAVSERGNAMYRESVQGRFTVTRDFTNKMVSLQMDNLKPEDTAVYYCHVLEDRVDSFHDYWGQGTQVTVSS
compound,measurement,setting,value
Cc1c(-c2ccc(N3CCc4cccc(C(=O)Nc5nc6ccccc6s5)c4C3)nc2C(=O)O)cnn1CC12CC3CC(CC(C3)C1)C2 [A-1331852],concentration at which activation maxed out,Bcl-xL; flow cytometry 48 hours,~30 nM
same,concentration at which the iADAR activated (as low as),"Bcl-xL; flow cytometry 48 hours after transfection, n=3",1 nM
"ALFA epitope tag, SRLEEELRRRLTE, SEQ ID NO: 85",reported interaction strength with AlfaNb,AlfaNb,picomolar
MCP-linker-ADAR2(E396A & E488Q)-TagBFP [MCP-dADAR],Fold Change,"UAG-MS2 editing reporter [1]; 1 μM vs 0 μM A-1331852, flow cytometry, n=1",0.9649
same,"Flow Cytometry Values, 0 μM (median of the ratio of mNeonGreen to mCherry)","UAG-MS2 editing reporter [1]; HEK cells co-transfected with ADAR reporter and ADAR variant, 0 μM A-1331852, two days after transfection, gated by BFP, n=1",0.0049
same,"Flow Cytometry Values, 1 μM (median of the ratio of mNeonGreen to mCherry)","UAG-MS2 editing reporter [1]; HEK cells co-transfected with ADAR reporter and ADAR variant, 1 μM A-1331852, two days after transfection, gated by BFP, n=1",0.0047
same,"mNeonGreen expression, fluorescence microscopy","UAG-MS2 editing reporter [2]; HEK 293 FT cells co-transfected with reporter containing 2 UAG stop codons in the hairpin, two days after transfection",minimal mNeonGreen fluorescence
same,HA tag staining of cells with AUA construct,"GFP-GPI reporter; fixed, permeabilized, anti-HA and AF647 secondary",not much staining
same,"cellular distribution of GFP from AUA-SS-GFP-GPI, live imaging",GFP-GPI reporter; one day after transfection,more cytoplasmic distribution
same,"translational efficiency, MS2-A based AUG construct",editable AUG reporters,significant decrease in translational efficiency
same,"effect on translational efficiency from a native AUG start codon, MS2-A substrate",AUA reporter,more modest negative effect on translational efficiency
same,relative fluorescence (EGFPd2-to-dTomato) of MS2-C reporters compared with filler DNA (NT),AUA reporter; 2-Way ANOVA,significantly decreased the relative fluorescence
MCP-linker-ADAR2-DDN-SpyTag- ADAR2(E488Q)-DDC-TEVcs-SpyCatcher-TagBFP [ADAR-DD TEVcs variant],induced ADAR activity with TEV protease,"UAG-MS2 editing reporter [1]; co-transfected TEV protease, flow cytometry 48 hours later",close to that of the non-engineered ADAR2-DD
same,dependence of ADAR activity on TEV protease,"UAG-MS2 editing reporter [1]; co-transfected with or without TEV protease, flow cytometry 48 hours later",only active with the addition of TEV protease
MCP-linker-ADAR2-DDN-SpyTag- ADAR2(E488Q)-DDC-TagBFP -P2A-T2A-SpyCatcher [T2A-SpyCatcher variant],"ADAR activity on mCherry-mNeonGreen reporter, no TEV protease",UAG-MS2 editing reporter [1]; flow cytometry,activity was seen
MCP-linker-ADAR2-DDN-SpyTag- ADAR2(E488Q)-DDC-TagBFP [SpyTag variant],"ADAR activity on mCherry-mNeonGreen reporter, no TEV protease",UAG-MS2 editing reporter [1]; flow cytometry,activity was seen
MCP-linker-BAD-ADAR2-DD(E488Q)-Bcl-xL-TagBFP [BAD-DD-BclxL],ADAR editing of the reporter construct depending on fusion position of BAD / Bcl-xL,"UAG-MS2 editing reporter [2]; HEK cells, two days, n=1",drug-dependent allostery
same,"fold change with A-1331852, N-terminal BAD fusion system","UAG-MS2 editing reporter [2]; HEK cells, absence or presence of A-1331852, two days, n=1",5.9 ×
same,background in the absence of drug compared with the loop insertion conformation,"UAG-MS2 editing reporter [2]; N-terminal BAD, C-terminal Bcl-xL, n=1",significantly higher
MCP-linker-BAD-ADAR2-DD(E488Q)-TagBFP [BAD-DD],ADAR editing of the reporter construct depending on fusion position of BAD / Bcl-xL,"UAG-MS2 editing reporter [2]; HEK cells, two days, n=1",did not affect ADAR editing of the reporter construct
MCP-linker-BclxL-linker-ADAR2-DDN-Bad(L)-ADAR2(E488Q)-DDC-TagBFP [BclxL-nDD-BAD-cDD],ADAR editing of the reporter construct depending on fusion position of BAD / Bcl-xL,"UAG-MS2 editing reporter [2]; HEK cells, two days, n=1",did not inhibit the enzymatic activity
"lower affinity ALFA epitope variant, GRLEEELRRRLSP, SEQ ID NO: 86 [ALFA-PE]",reported interaction strength with AlfaNb,AlfaNb,nanomolar
